Activity calls are given as the source filed them. No cut-off for these calls is given here.
Legend:
HL-60 [1] = test: Induction of apoptosis in human HL60 cells after 24 to 48 hrs by acridine orange and ethidium bromide staining based fluorescence microscopy; assay type: functional, cell-based; conditions: hl-60
[2] = Growth inhibition of human HL60 cells after 48 hrs by MTT assay; assay type: functional, cell-based, HL-60; conditions: Homo sapiens, HL-60, 48 h; read-out: IC50
K562 = test: Growth inhibition of human K562 cells after 48 hrs by MTT assay; assay type: functional, cell-based; conditions: Homo sapiens, K562, 48 h; read-out: IC50
HuT78 = test: Growth inhibition of human HUT78 cells after 48 hrs by MTT assay; assay type: functional, cell-based; conditions: Homo sapiens, HuT78, 48 h; read-out: IC50
HT-29 = test: Growth inhibition of human HT-29 cells after 48 hrs by MTT assay; assay type: functional, cell-based; conditions: Homo sapiens, HT-29, 48 h; read-out: IC50
MCF7 = test: Growth inhibition of human MCF7 cells after 48 hrs by MTT assay; assay type: functional, cell-based; conditions: Homo sapiens, MCF7, 48 h; read-out: IC50
HeLa = test: Growth inhibition of human HeLa cells after 48 hrs by MTT assay; assay type: functional, cell-based; conditions: Homo sapiens, HeLa, 48 h; read-out: IC50
[3] = Growth inhibition of human Caco2 cells after 48 hrs by MTT assay; assay type: functional, cell-based, Caco-2; conditions: Homo sapiens, Caco-2, 48 h; read-out: IC50
HL-60 [4] = test: Induction of cell cycle arrest in human HL60 cells assessed as accumulation at G1 phase at 1 mM after 24 hrs by propidium iodide staining based flow cytometry (reference value: 32%); assay type: functional
HL-60 [5] = test: Induction of cell cycle arrest in human HL60 cells assessed as accumulation at S phase at 1 mM after 24 hrs by propidium iodide staining based flow cytometry (reference value: 54%); assay type: functional
HL-60 [6] = test: Induction of cell cycle arrest in human HL60 cells assessed as accumulation at G2M phase at 1 mM after 24 hrs by propidium iodide staining based flow cytometry (reference value: 12%); assay type: functional
[7] = Half life in pH 7.4 isotonic sodium phosphate buffer at 37 degC by HPLC-DAD-ESI-MS method; assay type: physicochemical
[8] = Half life in RPMI-1640 medium containing 10% fetal calf serum assessed as compound disappearance by HPLC-DAD-ESI-MS method; assay type: ADME, Bos taurus; conditions: cattle
[9] = target: T1, Ribonucleotide reductase (Homo sapiens) (UniProt P23921+Q7LG56); test: Inhibition of ribonucleotide reductase in human HL60 cells assessed as intracellular dNTP pools level at 1.2 mM after 1 hr by HPLC method; assay type: cell-based; conditions: HL-60
[10] = target: T1, Ribonucleotide reductase (Homo sapiens); test: Inhibition of human recombinant ribonucleotide reductase at 1.2 mM; assay type: protein-complex assay

Q: Which results are given for `CCCC(CCC)C(=O)O[C@H]1[C@H](n2cnc3c(N)ncnc32)O[C@H](CO)[C@@]1(C)O`?
A: AC50 (HL-60 [1]): Not Active; IC50 [2]: 650 µM; IC50 (K562): 500 µM; IC50 (HuT78): 912 µM; IC50 (HT-29): > 1 mM; IC50 (MCF7): > 1 mM; IC50 (HeLa): > 1 mM; IC50 [3]: > 1 mM; Activity (HL-60 [4]): 51%; Activity (HL-60 [5]): 40%; Activity (HL-60 [6]): 9%; half-life [7]: > 3 days; half-life [8]: > 3 days; inhibition [9]: Active; inhibition [10]: Active

— ChEMBL document CHEMBL3351354, “From the covalent linkage of drugs to novel inhibitors of ribonucleotide reductase: synthesis and biological evaluation of valproic esters of 3'-C-methyladenosine” (Bioorg Med Chem Lett, 2014)
